{"source": "patent US10710986B2", "about": "“PD-1/PD-L1 inhibitors” (Gilead Sciences, Inc., priority 2018, dated 2020)", "note": "pIC50: −log10 of the molar value."}
{"biological_target": "PD-1/PD-L1 (Homo sapiens (Human), UniProt Q9NZQ7)", "sequence (Q9NZQ7 19-238)": "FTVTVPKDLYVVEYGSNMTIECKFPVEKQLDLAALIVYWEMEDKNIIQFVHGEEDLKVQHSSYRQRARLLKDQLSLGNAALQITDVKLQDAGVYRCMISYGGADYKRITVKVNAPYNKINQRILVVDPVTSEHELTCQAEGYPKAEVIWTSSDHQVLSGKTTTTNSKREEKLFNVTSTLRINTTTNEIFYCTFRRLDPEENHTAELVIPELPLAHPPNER", "assay": "PD-1/PD-L1 biochemical protein-protein interaction assay (ALPHA)", "conditions": "0.3 nM His tagged PD-L1, 2.5 nM biotinylated Fc-PD-1, 60 minutes at 25° C., read-out: IC50 PD-L1-PD1"}
{"smiles": "COc1nc(-c2cccc(-c3cccc(-c4cnc(CN[C@@H]5CCN(C6COC6)C5)c(OC)n4)c3Cl)c2Cl)cnc1CNC[C@@H]1CCC(=O)N1", "note": "[compound 333]", "pIC50": 9.77}
{"smiles": "COc1nc(-c2cccc(-c3cccc(-c4cnc(CN[C@@H]5CCOC[C@H]5O)c(OC)n4)c3Cl)c2Cl)cnc1CNC[C@@H]1CCC(=O)N1", "note": "[compound 334]", "pIC50": 9.61}
{"smiles": "COc1nc(-c2cccc(-c3cccc(-c4cnc(CN[C@H]5CCOC[C@@H]5O)c(OC)n4)c3Cl)c2Cl)cnc1CNC[C@@H]1CCC(=O)N1", "note": "[compound 335]", "pIC50": 9.76}
{"smiles": "COc1nc(-c2cccc(-c3cccc(-c4cnc(CN[C@H]5COCC[C@@H]5O)c(OC)n4)c3Cl)c2Cl)cnc1CNC[C@@H]1CCC(=O)N1", "note": "[compound 336]", "pIC50": 9.86}
{"smiles": "COc1nc(-c2cccc(-c3cccc(-c4cnc(CNC[C@@H]5CCC(=O)N5)c(OC)n4)c3Cl)c2Cl)cnc1CNCc1ccc(S(N)(=O)=O)s1", "note": "[compound 337]", "pIC50": 8.96}
{"smiles": "COc1nc(-c2cccc(-c3cccc(-c4cnc(CNC[C@@H]5CCC(=O)N5)c(OC)n4)c3Cl)c2Cl)cnc1CNCc1ncccc1O", "note": "[compound 338]", "pIC50": 9.25}
{"smiles": "COc1nc(-c2cccc(-c3cccc(-c4cnc(CN[C@@H]5COCC[C@H]5O)c(OC)n4)c3Cl)c2Cl)cnc1CNC[C@@H]1CCC(=O)N1", "note": "[compound 339]", "pIC50": 9.72}
{"smiles": "COCCNCc1ncc(-c2cccc(-c3cccc(-c4cnc(CNC[C@@H]5CCC(=O)N5)c(OC)n4)c3Cl)c2Cl)nc1OC", "note": "[compound 340]", "pIC50": 9.93}
{"smiles": "COc1nc(-c2cccc(-c3cccc(-c4cnc(CN[C@H]5C[C@@H](CO)C5)c(OC)n4)c3Cl)c2Cl)cnc1CNC[C@@H]1CCC(=O)N1", "note": "[compound 341]", "pIC50": 10.03}
{"smiles": "COc1nc(-c2cccc(-c3cccc(-c4cnc(CN[C@H]5C[C@H](O)C5)c(OC)n4)c3Cl)c2Cl)cnc1CNC[C@@H]1CCC(=O)N1", "note": "[compound 342]", "pIC50": 9.97}
{"smiles": "COc1nc(-c2cccc(-c3cccc(-c4cnc(CN[C@H]5C[C@@H](O)C5)c(OC)n4)c3Cl)c2Cl)cnc1CNC[C@@H]1CCC(=O)N1", "note": "[compound 343]", "pIC50": 9.90}
{"smiles": "COc1nc(-c2cccc(-c3cccc(-c4cnc(CNC[C@H](C)O)c(OC)n4)c3Cl)c2Cl)cnc1CNC[C@@H]1CCC(=O)N1", "note": "[compound 344]", "pIC50": 9.94}
{"smiles": "COc1nc(-c2cccc(-c3cccc(-c4cnc(CNC[C@@H](C)O)c(OC)n4)c3Cl)c2Cl)cnc1CNC[C@@H]1CCC(=O)N1", "note": "[compound 345]", "pIC50": 9.50}
{"smiles": "COc1nc(-c2cccc(-c3cccc(-c4cnc(CN[C@@H](C)CO)c(OC)n4)c3Cl)c2Cl)cnc1CNC[C@@H]1CCC(=O)N1", "note": "[compound 346]", "pIC50": 9.49}
{"smiles": "COc1nc(-c2cccc(-c3cccc(-c4cnc(CN[C@H](C)CO)c(OC)n4)c3Cl)c2Cl)cnc1CNC[C@@H]1CCC(=O)N1", "note": "[compound 347]", "pIC50": 9.61}
{"smiles": "COc1nc(-c2cccc(-c3cccc(-c4cnc(CN5CC(N6CC(O)C6)C5)c(OC)n4)c3Cl)c2Cl)cnc1CNC[C@@H]1CCC(=O)N1", "note": "[compound 348]", "pIC50": 9.86}
{"smiles": "COc1nc(-c2cccc(-c3cccc(-c4cnc(CN5CC(c6ccccn6)C5)c(OC)n4)c3Cl)c2Cl)cnc1CNC[C@@H]1CCC(=O)N1", "note": "[compound 349]", "pIC50": 9.41}
{"smiles": "COc1nc(-c2cccc(-c3cccc(-c4cnc(CN5CC(c6ccccc6)C5)c(OC)n4)c3Cl)c2Cl)cnc1CNC[C@@H]1CCC(=O)N1", "note": "[compound 350]", "pIC50": 9.13}
{"smiles": "COc1nc(-c2cccc(-c3cccc(-c4cnc(CN5CC(N6CCOCC6)C5)c(OC)n4)c3Cl)c2Cl)cnc1CNC[C@@H]1CCC(=O)N1", "note": "[compound 351]", "pIC50": 9.55}
{"smiles": "COc1nc(-c2cccc(-c3cccc(-c4cnc(Cn5c(C)ccc5C)c(OC)n4)c3Cl)c2Cl)cnc1CNC[C@@H]1CCC(=O)N1", "note": "[compound 352]", "pIC50": 8.33}
{"smiles": "COc1nc(-c2cccc(-c3cccc(-c4cnc(CN[C@@H]5CC[C@H](O)C5)c(OC)n4)c3Cl)c2Cl)cnc1CNC[C@@H]1CCC(=O)N1", "note": "[compound 353]", "pIC50": 10.19}
{"smiles": "COc1nc(-c2cccc(-c3cccc(-c4cnc(CN[C@@H]5CC[C@@H](O)C5)c(OC)n4)c3Cl)c2Cl)cnc1CNC[C@@H]1CCC(=O)N1", "note": "[compound 354]", "pIC50": 9.88}
{"smiles": "COc1nc(-c2cccc(-c3cccc(-c4cnc(CN[C@H]5CC[C@H](O)C5)c(OC)n4)c3Cl)c2Cl)cnc1CNC[C@@H]1CCC(=O)N1", "note": "[compound 355]", "pIC50": 9.89}
{"smiles": "COc1nc(-c2cccc(-c3cccc(-c4cnc(CN[C@H]5CC[C@@H](O)C5)c(OC)n4)c3Cl)c2Cl)cnc1CNC[C@@H]1CCC(=O)N1", "note": "[compound 356]", "pIC50": 9.99}
{"smiles": "COc1nc(-c2cccc(-c3cccc(-c4cnc(CN[C@H]5C[C@H](S(C)(=O)=O)C5)c(OC)n4)c3Cl)c2Cl)cnc1CNC[C@@H]1CCC(=O)N1", "note": "[compound 357]", "pIC50": 10.02}
{"smiles": "COc1nc(-c2cccc(-c3cccc(-c4cnc(CN[C@H]5C[C@@H](S(C)(=O)=O)C5)c(OC)n4)c3Cl)c2Cl)cnc1CNC[C@@H]1CCC(=O)N1", "note": "[compound 358]", "pIC50": 9.85}
{"smiles": "COc1nc(-c2cccc(-c3cccc(-c4cnc(CN[C@H]5CCOC5)c(OC)n4)c3Cl)c2Cl)cnc1CNC[C@@H]1CCC(=O)N1", "note": "[compound 359]", "pIC50": 9.88}
{"smiles": "COc1nc(-c2cccc(-c3cccc(-c4cnc(CN[C@@H]5CCOC5)c(OC)n4)c3Cl)c2Cl)cnc1CNC[C@@H]1CCC(=O)N1", "note": "[compound 360]", "pIC50": 9.40}
{"smiles": "COc1nc(-c2cccc(-c3cccc(-c4cnc(CN[C@H]5C[C@H](NC(C)=O)C5)c(OC)n4)c3Cl)c2Cl)cnc1CNC[C@@H]1CCC(=O)N1", "note": "[compound 361]", "pIC50": 9.89}
{"smiles": "COc1nc(-c2cccc(-c3cccc(-c4cnc(CN[C@H]5C[C@@H](NC(C)=O)C5)c(OC)n4)c3Cl)c2Cl)cnc1CNC[C@@H]1CCC(=O)N1", "note": "[compound 362]", "pIC50": 10.13}
{"smiles": "COc1nc(-c2cccc(-c3cccc(-c4cnc(CNC5CC6(C5)CS(=O)(=O)C6)c(OC)n4)c3Cl)c2Cl)cnc1CNC[C@@H]1CCC(=O)N1", "note": "[compound 363]", "pIC50": 9.37}
{"smiles": "COc1nc(-c2cccc(-c3cccc(-c4cnc(CN[C@H]5C[C@H](OC)C5)c(OC)n4)c3Cl)c2Cl)cnc1CNC[C@@H]1CCC(=O)N1", "note": "[compound 364]", "pIC50": 9.61}
{"smiles": "COc1nc(-c2cccc(-c3cccc(-c4cnc(CN[C@H]5C[C@@H](OC)C5)c(OC)n4)c3Cl)c2Cl)cnc1CNC[C@@H]1CCC(=O)N1", "note": "[compound 365]", "pIC50": 10.15}
{"smiles": "COc1nc(-c2cccc(-c3cccc(-c4cnc(CN[C@H]5C[C@H](C(C)(C)O)C5)c(OC)n4)c3Cl)c2Cl)cnc1CNC[C@@H]1CCC(=O)N1", "note": "[compound 366]", "pIC50": 9.94}
{"smiles": "COc1nc(-c2cccc(-c3cccc(-c4cnc(CN5CC6(C5)CS(=O)(=O)C6)c(OC)n4)c3Cl)c2Cl)cnc1CNC[C@@H]1CCC(=O)N1", "note": "[compound 367]", "pIC50": 10.19}
{"smiles": "COc1nc(-c2cccc(-c3cccc(-c4cnc(CN5CC6(CNC(=O)C6)C5)c(OC)n4)c3Cl)c2Cl)cnc1CNC[C@@H]1CCC(=O)N1", "note": "[compound 368]", "pIC50": 10.19}
{"smiles": "COc1nc(-c2cccc(-c3cccc(-c4cnc(CN5CC(NC(C)=O)C5)c(OC)n4)c3Cl)c2Cl)cnc1CNC[C@@H]1CCC(=O)N1", "note": "[compound 369]", "pIC50": 10.11}
{"smiles": "COc1nc(-c2cccc(-c3cccc(-c4cnc(CNC[C@@H]5CCC(=O)N5)c(OC)n4)c3Cl)c2Cl)cnc1CNCCn1ccccc1=O", "note": "[compound 370]", "pIC50": 10.19}
{"smiles": "COc1nc(-c2cccc(-c3cccc(-c4cnc(CN5CC6(CCC(=O)N6)C5)c(OC)n4)c3Cl)c2Cl)cnc1CNC[C@@H]1CCC(=O)N1", "note": "[compound 371]", "pIC50": 9.67}
{"smiles": "COc1nc(-c2cccc(-c3cccc(-c4cnc(CNC[C@@H]5CCC(=O)N5)c(OC)n4)c3Cl)c2Cl)cnc1CNCCN1CCCC1=O", "note": "[compound 372]", "pIC50": 9.98}
{"smiles": "COc1nc(-c2cccc(-c3cccc(-c4cnc(CNC[C@@H]5CCC(=O)N5)c(OC)n4)c3Cl)c2Cl)cnc1CNCCNC(C)=O", "note": "[compound 373]", "pIC50": 9.89}
{"smiles": "COc1nc(-c2cccc(-c3cccc(-c4cnc(CNC[C@@H]5CCC(=O)N5)c(OC)n4)c3Cl)c2Cl)cnc1CNCCO", "note": "[compound 374]", "pIC50": 9.74}
{"smiles": "COc1nc(-c2cccc(-c3cccc(-c4cnc(CNC(C)(C)CNC(C)=O)c(OC)n4)c3Cl)c2Cl)cnc1CNC[C@@H]1CCC(=O)N1", "note": "[compound 375]", "pIC50": 9.34}
{"smiles": "COc1nc(-c2cccc(-c3cccc(-c4cnc(CNCC(C)(C)NC(C)=O)c(OC)n4)c3Cl)c2Cl)cnc1CNC[C@@H]1CCC(=O)N1", "note": "[compound 376]", "pIC50": 9.68}
{"smiles": "COc1nc(-c2cccc(-c3cccc(-c4cnc(CNC(C)(C)CO)c(OC)n4)c3Cl)c2Cl)cnc1CNC[C@@H]1CCC(=O)N1", "note": "[compound 377]", "pIC50": 10.01}
{"smiles": "COc1nc(-c2cccc(-c3cccc(-c4cnc(CNCC(C)(C)O)c(OC)n4)c3Cl)c2Cl)cnc1CNC[C@@H]1CCC(=O)N1", "note": "[compound 378]", "pIC50": 9.40}
{"smiles": "COc1nc(-c2cccc(-c3cccc(-c4cnc(CN5CC(O)C5)c(OC)n4)c3Cl)c2Cl)cnc1CNC[C@@H]1CCC(=O)N1", "note": "[compound 379]", "pIC50": 9.81}
{"smiles": "COc1nc(-c2cccc(-c3cccc(-c4cnc(CN5CC[C@@H](O)C5)c(OC)n4)c3Cl)c2Cl)cnc1CNC[C@@H]1CCC(=O)N1", "note": "[compound 380]", "pIC50": 9.69}
{"smiles": "COc1nc(-c2cccc(-c3cccc(-c4cnc(CN[C@@H]5CCC[C@@H]5O)c(OC)n4)c3Cl)c2Cl)cnc1CNC[C@@H]1CCC(=O)N1", "note": "[compound 381]", "pIC50": 10.07}
{"smiles": "COc1nc(-c2cccc(-c3cccc(-c4cnc(CNCC(C)(C)O)c(OC)n4)c3Cl)c2Cl)cnc1CNCC(C)(C)O", "note": "[compound 382]", "pIC50": 9.54}
{"smiles": "COc1nc(-c2cccc(-c3cccc(-c4cnc(CN[C@@H]5CCC[C@@H]5O)c(OC)n4)c3Cl)c2Cl)cnc1CN[C@@H]1CCC[C@@H]1O", "note": "[compound 383]", "pIC50": 9.05}
{"smiles": "COc1nc(-c2cccc(-c3cccc(-c4cnc(CNC(C)(C)CO)c(OC)n4)c3Cl)c2Cl)cnc1CNC(C)(C)CO", "note": "[compound 384]", "pIC50": 9.81}
{"smiles": "COc1nc(-c2cccc(-c3cccc(-c4cnc([C@H](C)N)c(OC)n4)c3Cl)c2Cl)cnc1[C@H](C)N", "note": "[compound 385]", "pIC50": 9.53}
{"smiles": "COc1nc(-c2cccc(-c3cccc(-c4cnc([C@@H](C)N)c(OC)n4)c3Cl)c2Cl)cnc1[C@@H](C)N", "note": "[compound 386]", "pIC50": 9.06}
{"smiles": "COc1nc(-c2cccc(-c3cccc(-c4cnc(CN[C@@H]5CC[C@@H]6CC(=O)N[C@@H]65)c(OC)n4)c3Cl)c2Cl)cnc1CNC[C@@H]1CCC(=O)N1", "note": "[compound 387]", "pIC50": 9.20}
{"smiles": "COc1nc(-c2cccc(-c3cccc(-c4cnc(CN[C@@H]5CC[C@@H]6CC(=O)N[C@@H]65)c(OC)n4)c3Cl)c2Cl)cnc1CN[C@@H]1CC[C@@H]2CC(=O)N[C@@H]21", "note": "[compound 388]", "pIC50": 8.91}
